Results on 13 molecules are retold here after patent US7714146B2, “Azulene-oxindole compounds as multiple-kinase inhibitors and useful as anticancer agents” (Industrial Technology Research Institute, priority 2006, dated 2010).

Common to all, as to assay type: biochemical
The target in assay [1] is T1, human FLT-3 (Arg571-Ser993) (Homo sapiens, UniProt P36888).
T1 construct: human FLT-3 (Arg571-Ser993); GST (N); purchased Cell Signaling Technology; host or cells: baculovirus expression system
T1 sequence (P36888 571-993): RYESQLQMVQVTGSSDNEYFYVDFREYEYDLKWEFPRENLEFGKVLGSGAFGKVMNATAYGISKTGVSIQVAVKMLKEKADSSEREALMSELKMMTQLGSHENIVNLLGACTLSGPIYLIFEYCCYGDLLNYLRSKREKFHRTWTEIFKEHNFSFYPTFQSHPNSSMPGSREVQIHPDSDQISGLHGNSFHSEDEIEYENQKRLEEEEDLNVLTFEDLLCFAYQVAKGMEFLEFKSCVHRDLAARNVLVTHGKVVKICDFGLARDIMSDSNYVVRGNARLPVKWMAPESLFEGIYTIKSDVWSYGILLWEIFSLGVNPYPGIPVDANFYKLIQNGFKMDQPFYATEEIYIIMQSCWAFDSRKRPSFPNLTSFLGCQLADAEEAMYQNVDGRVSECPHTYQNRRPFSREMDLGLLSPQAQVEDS
The experiment in a line: FLT-3 kinase assay (HTScan kit, DELFIA). To be noted: for inhibition at 0.1 µM: compound at 0.1 μM, read-out: FLT-3 0.1 μM, % of inhibition relative to control; for inhibition at 1 µM: compound at 1 μM, read-out: FLT-3 1 μM, % of inhibition relative to control; for IC50: read-out: FLT-3 kinase inhibition (IC50). On the procedure: (§1) Compounds 1-100 were treated for their efficacy in inhibiting activities of FLT-3, c-KIT, KDR/Flk-1, PDGFR-beta, EGFR, and PKC kinases by biochemical DELFIA (Dissociation Enhanced Lanthanide FIA) assays according to the procedure described below. The assays were conducted by, Division of Cell Engineering, Biomedical Engineering Research Laboratories, Industrial Technology Research Institute, Bldg. 53, 195, sec. 4, Chung Hsing Rd. Chutung, Hsinchu, Taiwan 310, R.O.C.
(§2) The FLT-3 assay was conducted following the protocol described in Protocol for HTScan® FLT-3 Kinase Assay Kit (Cell Signaling Technology®). The assay was conducted under the following conditions: FLT-3 source: The GST-kinase fusion protein was produced using a baculovirus expression system with a construct expressing human FLT-3 (Arg571-Ser993) (GenBank accession No. NM_004119) with an amino-terminal GST tag, substrate: 1.5 μM Gastrin Precursor Biotinylated Peptide (with Tyr87 as phosphorylation site), vehicle: 1% DMSO, pre-incubation time/temperature: 5 minutes at room temperature, incubation time/temperature: 30 minutes at room temperature, incubation buffer: 60 mM HEPES pH 7.5, 5 mM MgCl2, 5 mM MnCl2, 3 μM Na3VO4, 1.25 mM DTT, 20 μM ATP, and quantitative method: DELFIA® Assay.

Assay [2] deals with T2, human c-KIT (Thr544-Val976) (Homo sapiens, UniProt P10721).
T2 construct: human c-KIT (Thr544-Val976); GST (N); purchased Cell Signaling Technology; host or cells: baculovirus expression system
T2 sequence (P10721 544-976): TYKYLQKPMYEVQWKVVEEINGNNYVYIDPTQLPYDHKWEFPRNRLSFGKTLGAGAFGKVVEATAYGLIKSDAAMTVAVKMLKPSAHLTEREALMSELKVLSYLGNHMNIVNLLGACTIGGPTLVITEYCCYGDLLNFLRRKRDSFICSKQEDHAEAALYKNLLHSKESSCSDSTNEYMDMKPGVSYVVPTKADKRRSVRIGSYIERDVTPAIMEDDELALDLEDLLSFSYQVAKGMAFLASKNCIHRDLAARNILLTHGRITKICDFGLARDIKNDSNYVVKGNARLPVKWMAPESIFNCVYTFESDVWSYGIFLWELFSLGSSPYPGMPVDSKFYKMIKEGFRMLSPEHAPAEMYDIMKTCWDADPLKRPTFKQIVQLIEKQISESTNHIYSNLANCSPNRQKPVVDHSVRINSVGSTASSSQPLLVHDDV
In words: c-KIT kinase assay (HTScan kit, DELFIA). To be noted: for inhibition at 0.1 µM: compound at 0.1 μM, read-out: c-KIT 0.1 μM, % of inhibition relative to control; for inhibition at 1 µM: compound at 1 μM, read-out: c-KIT 1 μM, % of inhibition relative to control; for IC50: read-out: c-KIT kinase inhibition (IC50). On the procedure: as §1
as §2, with “c-KIT” for “FLT-3”, “GST-c-KIT” for “GST-kinase”, “c-KIT (Thr544-Val976)” for “FLT-3 (Arg571-Ser993) (GenBank accession No. NM_004119)”, “This biotinylated peptide contains the residues surrounding Tyr-996 of KDR,” for “Gastrin Precursor Biotinylated Peptide (with Tyr87 as phosphorylation site),”

Assay [3] has as its target T3, human VEGFR-2 (Val789-Val1356) (Homo sapiens, UniProt P35968).
T3 construct: human VEGFR-2 (Val789-Val1356); GST (N); purchased Cell Signaling Technology; host or cells: baculovirus expression system
In words: KDR kinase assay (HTScan VEGFR-2 kit, DELFIA). Particulars: for inhibition at 0.1 µM: compound at 0.1 μM, read-out: KDR 0.1 μM, % of inhibition relative to control; for inhibition at 1 µM: compound at 1 μM, read-out: KDR 1 μM, % of inhibition relative to control. How it is done:
as §1
The KDR assay was conducted following the protocol described in Protocol for HTScan® VEGFR-2 Kinase Assay Kit (Cell Signaling Technology®). The assay was conducted under the following conditions: KDR source: The GST-Kinase fusion protein was produced using a baculovirus expression system with a construct expressing human VEGFR-2 (Val789-Val1356) (GenBank Accession No. NM_002253) with an amino-terminal GST tag, substrate: 1.5 μM Gastrin Precursor Biotinylated Peptide (with Tyr87 as phosphorylation site), vehicle: 1% DMSO, pre-incubation time/temperature: 5 minutes at room temperature, incubation time/temperature: 30 minutes at room temperature, incubation buffer: 60 mM HEPES pH 7.5, 5 mM MgCl2, 5 mM MnCl2, 3 μM Na3VO4, 1.25 mM DTT, 20 μM ATP, and quantitative method: DELFIA® Assay.

T3 sequence (P35968 789-1356): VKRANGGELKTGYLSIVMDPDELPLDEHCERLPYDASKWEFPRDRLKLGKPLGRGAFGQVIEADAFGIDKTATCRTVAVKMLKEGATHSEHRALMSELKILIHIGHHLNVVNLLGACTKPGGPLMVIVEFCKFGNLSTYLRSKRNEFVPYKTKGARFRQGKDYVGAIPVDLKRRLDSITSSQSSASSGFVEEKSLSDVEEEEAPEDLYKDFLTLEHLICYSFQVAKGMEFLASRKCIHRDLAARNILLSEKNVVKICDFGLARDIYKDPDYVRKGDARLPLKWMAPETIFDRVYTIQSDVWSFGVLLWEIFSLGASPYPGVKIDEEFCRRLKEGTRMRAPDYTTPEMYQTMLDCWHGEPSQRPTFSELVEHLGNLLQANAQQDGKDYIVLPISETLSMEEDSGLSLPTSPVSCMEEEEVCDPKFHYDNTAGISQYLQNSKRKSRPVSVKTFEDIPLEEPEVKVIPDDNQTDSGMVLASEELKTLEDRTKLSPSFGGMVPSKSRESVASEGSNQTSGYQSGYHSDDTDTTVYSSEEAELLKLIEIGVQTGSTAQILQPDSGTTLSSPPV

Turning to `Cc1c2cccccc-2c(C)c1/C=C1/C(=O)Nc2ccc(F)cc21` [Compound 66, 3-(1,3-Dimethyl-azulen-2-ylmethylene)-5-fluoro-1,3-dihydro-indol-2-one], the inhibition (usually how much of the control response was suppressed) at 0.1 µM in assay [1] stood at 15.8%; in assay [2] it was 33.7%; in assay [3], 14.8%. Moreover, the inhibition at 1 µM in assay [1] was 19.6%; in assay [2], 33.7%; in assay [3] it was 40.6%.
As to `O=C1Nc2ccccc2/C1=C\c1ccc2cccccc1-2` [Compound 19, 3-Azulen-1-ylmethylene-1,3-dihydro-indol-2-one], the figures for the inhibition at 1 µM in assay [1], in assay [2] and in assay [3] were 7.6%, 0.6% and 22.1%, respectively. For the same molecule, the inhibition at 0.1 µM was 0.6% in assay [2] and 33.8% in assay [3].
Take `CCc1cc(C=C2C(=O)Nc3ccc(S(=O)(=O)NCCCN4CCN(C)CC4)cc32)c2cccccc1-2` [Compound 83, 3-(3-Ethyl-azulen-1-ylmethylene)-2-oxo-2,3-dihydro-1H-indole-5-sulfonic acid [3-(4-methyl-piperazin-1-yl)-propyl]-amide]: the results for the inhibition at 0.1 µM in assay [1], in assay [2] and in assay [3] were 10.5%, 19.6% and 20.8%, respectively. The inhibition at 1 µM in assay [1] is 17.7%; in assay [2], 19.6%; in assay [3] it was 26.7%.
Turning to `CN(C)Cc1cc(/C=C2/C(=O)Nc3ccc(F)cc32)c2cccccc1-2` [Compound 65, 3-(3-Dimethylaminomethyl-azulen-1-ylmethylene)-5-fluoro-1,3-dihydro-indol-2-one], the inhibition at 0.1 µM in assay [1] came to 23.3%; in assay [2], 51.3%; in assay [3], 46.8%. For the same molecule, the values for the inhibition at 1 µM in assay [1], in assay [2] and in assay [3] were 30.9%, 51.3% and 46.9%, respectively.
With `O=C1Nc2ccc(F)cc2/C1=C\c1ccc2cccccc1-2` [Compound 25, 3-Azulen-1-ylmethylene-5-fluoro-1,3-dihydro-indol-2-one], the inhibition at 0.1 µM in assay [1] was determined as 26.2%; in assay [2], 75%; in assay [3], 7.7%. Besides, the figures for the inhibition at 1 µM in assay [1], in assay [2] and in assay [3] were 58.8%, 75% and 45.7%, respectively.
In the case of `Cc1cc(C=C2C(=O)Nc3ccc(F)cc32)c2ccccc(OCCCN3CCN(C)CC3)c1-2` [Compound 96, 5-Fluoro-3-{3-methyl-4-[3-(4-methyl-piperazin-1-yl)-propoxy]-azulen-1-ylmethylene}-1,3-dihydro-indol-2-one], the inhibition at 0.1 µM in assay [1] was found to be 68.9%; in assay [2] it was 58%; in assay [3], 29.3%. The inhibition at 1 µM was found to be 97.2% in assay [1], 58% in assay [2] and 89.8% in assay [3].
`Cc1cc(C=C2C(=O)Nc3ccc(F)cc32)c2ccccc(OCCCN3CCOCC3)c1-2` (mixture of isomers) [Compound 87, 5-Fluoro-3-[3-methyl-4-(3-morpholin-4-yl-propoxy)-azulen-1-ylmethylene]-1,3-dihydro-indol-2-one]: in assay [1], the inhibition at 0.1 µM was 56.9%; the inhibition at 1 µM turned out to be 85.7%; the IC50 (as a rule, the concentration that gives 50% inhibition) is 4.8 nM. Moreover, in assay [2], the inhibition at 0.1 µM turned out to be 71%, the inhibition at 1 µM came out at 71% and the IC50 is 17.8 nM. In addition, in assay [3], the inhibition at 0.1 µM stood at 1.9% and the inhibition at 1 µM was 11.5%.
As to `Cc1cc(/C=C2\C(=O)Nc3ccc(F)cc32)c2ccccc(OCCCN(C)C)c1-2` [Compound 95, 3-[4-(3-Dimethylamino-propoxy)-3-methyl-azulen-1-ylmethylene]-5-fluoro-1,3-dihydro-indol-2-one], the values for the inhibition at 0.1 µM in assay [1], in assay [2] and in assay [3] were 70.9%, 65.1% and 35.5%, respectively. Besides, the figures for the inhibition at 1 µM in assay [1], in assay [2] and in assay [3] were 98.4%, 65.1% and 93.6%, respectively. Further, the IC50 amounted to 9.3 nM in assay [1] and 158 nM in assay [2].
Regarding `CN(C)Cc1cc(/C=C2/C(=O)Nc3ccccc32)c2cccccc1-2` [Compound 58, 3-(3-Dimethylaminomethyl-azulen-1-ylmethylene)-1,3-dihydro-indol-2-one], the inhibition at 0.1 µM came out at 16.5% in assay [1], 18% in assay [2] and 12.1% in assay [3]. Further, the results for the inhibition at 1 µM in assay [1], in assay [2] and in assay [3] were 43.9%, 18% and 23.8%, respectively.
For the molecule `O=C1Nc2ccc(F)cc2/C1=C/c1cc(F)c2cccccc1-2` [Compound 60, 5-Fluoro-3-(3-fluoro-azulen-1-ylmethylene)-1,3-dihydro-indol-2-one], the inhibition at 0.1 µM in assay [1] was found to be 52.6%; in assay [2], 28.3%; in assay [3], 55.6%. In addition, the values for the inhibition at 1 µM in assay [1], in assay [2] and in assay [3] were 52.8%, 28.3% and 40.3%, respectively.
With `Cc1[nH]c(/C=C2\C(=O)Nc3ccc(F)cc32)c2ccc(=O)ccc12` [Compound 63, 1-(5-Fluoro-2-oxo-1,2-dihydro-indol-3-ylidenemethyl)-3-methyl-2H-cyclohepta[c]pyrrol-6-one], the inhibition at 0.1 µM in assay [1] came out at 50.5%; in assay [2], 57.1%; in assay [3], 6.7%. Moreover, the inhibition at 1 µM in assay [1] is 55.7%; in assay [2], 57.1%; in assay [3], 32.2%.
`Cc1cc(C=C2C(=O)Nc3cc(F)ccc32)c2ccccc(OCCCN(C)C)c1-2` [Compound 91, 3-[4-(3-Dimethylamino-propoxy)-3-methyl-azulen-1-ylmethylene]-6-fluoro-1,3-dihydro-indol-2-one]: the inhibition at 0.1 µM in assay [1] amounted to 15.2%; in assay [2] it was 56.5%; in assay [3], 1.1%. For the same molecule, the inhibition at 1 µM is 52.4% in assay [1], 56.5% in assay [2] and 9.4% in assay [3].
As to `Cc1cc(C=C2C(=O)Nc3cc(C(F)(F)F)ccc32)c2ccccc(OCCCN(C)C)c1-2` [Compound 94, 3-[4-(3-Dimethylamino-propoxy)-3-methyl-azulen-1-ylmethylene]-6-trifluoromethyl-1,3-dihydro-indol-2-one], the inhibition at 0.1 µM in assay [1] worked out at 6.5%; in assay [2], 47.6%; in assay [3], 35.8%. The inhibition at 1 µM in assay [1] is 14.4%; in assay [2], 47.6%; in assay [3] it was 52.4%.
